# According to PubChem BioAssay AID1963850 (Molecular Pharmacology Branch, DTP, NCI, 2024):
# Test system: 192522-019-R-J2-PDC complex tumor spheroid viability
# Experiment: Anticancer human tumor 192522-019-R-J2-PDC patient-derived colon adenocarcinoma cell line growth inhibition [POLQ]
# Details: for IC50: curve of first compound; for viability, T/C: stronger effect = lower value
# Procedure, shortened: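 PDC + HUVEC + MSC complex spheroids; POLQ inhibitors ± partner drugs; top conc. at/near clinical Cmax, else 10 microM (SN-38 1 microM), half-log dilutions; 37 degrees C, 5% CO2.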
# [1] = second compound 0.0316 µM, first compound 0.0316 µM
# [2] = second compound 0.0316 µM, first compound 0.1 µM
# [3] = second compound 0.0316 µM, first compound 0.316 µM
# [4] = second compound 0.0316 µM, first compound 1 µM
# [5] = second compound 0.0316 µM, first compound 3.16 µM
# [6] = second compound 0.0316 µM, first compound 10 µM
# [7] = second compound 0.1 µM, first compound 0.0316 µM
# [8] = second compound 0.1 µM, first compound 0.1 µM
# [9] = second compound 0.1 µM, first compound 0.316 µM
# [10] = second compound 0.1 µM, first compound 1 µM
# [11] = second compound 0.1 µM, first compound 3.16 µM
# [12] = second compound 0.1 µM, first compound 10 µM
# [13] = second compound 0.316 µM, first compound 0.0316 µM
# [14] = second compound 0.316 µM, first compound 0.1 µM
# [15] = second compound 0.316 µM, first compound 0.316 µM
# [16] = second compound 0.316 µM, first compound 1 µM
# [17] = second compound 0.316 µM, first compound 3.16 µM
# [18] = second compound 0.316 µM, first compound 10 µM
# [19] = second compound 1 µM, first compound 0.0316 µM
# [20] = second compound 1 µM, first compound 0.1 µM
# [21] = second compound 1 µM, first compound 0.316 µM
# [22] = second compound 1 µM, first compound 1 µM
# [23] = second compound 1 µM, first compound 3.16 µM
# [24] = second compound 1 µM, first compound 10 µM
# [25] = second compound 3.16 µM, first compound 0.0316 µM
# [26] = second compound 3.16 µM, first compound 0.1 µM
# [27] = second compound 3.16 µM, first compound 0.316 µM
# [28] = second compound 3.16 µM, first compound 1 µM
# [29] = second compound 3.16 µM, first compound 3.16 µM
# [30] = second compound 3.16 µM, first compound 10 µM
# [31] = second compound 10 µM, first compound 0.0316 µM
# [32] = second compound 10 µM, first compound 0.1 µM
# [33] = second compound 10 µM, first compound 0.316 µM
# [34] = second compound 10 µM, first compound 1 µM
# [35] = second compound 10 µM, first compound 3.16 µM
# [36] = second compound 10 µM, first compound 10 µM
# 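Further: spheroids exposed to drugs for seven days before reading.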
# 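Wherever viability, T/C is given: 100% = DMSO vehicle control viability in luminescence.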
smiles,measurement,setting,value
CCc1cc2c(N3CCc4c(cc(Cn5ccnc5)cc4-c4cn(C)nc4C(F)(F)F)C3=O)cc(C)nc2c(OC)n1 + Nc1ccc(C#CCN(C(=O)Cc2ncc(C(F)(F)F)cc2C(F)(F)F)c2ccc(F)cc2)nn1,IC50,second compound 0.0316 µM,> 10 µM
same,IC50,second compound 0.1 µM,> 10 µM
same,IC50,second compound 0.316 µM,> 10 µM
same,IC50,second compound 1 µM,> 10 µM
same,IC50,second compound 3.16 µM,> 10 µM
same,IC50,second compound 10 µM,> 10 µM
same,"viability, T/C",[1],102%
same,"viability, T/C",[2],99.6%
same,"viability, T/C",[3],88.1%
same,"viability, T/C",[4],73.7%
same,"viability, T/C",[5],63.6%
same,"viability, T/C",[6],65.4%
same,"viability, T/C",[7],101%
same,"viability, T/C",[8],93.6%
same,"viability, T/C",[9],77.1%
same,"viability, T/C",[10],76.9%
same,"viability, T/C",[11],79.5%
same,"viability, T/C",[12],73.1%
same,"viability, T/C",[13],105%
same,"viability, T/C",[14],100%
same,"viability, T/C",[15],89.4%
same,"viability, T/C",[16],75.6%
same,"viability, T/C",[17],72.8%
same,"viability, T/C",[18],73.4%
same,"viability, T/C",[19],103%
same,"viability, T/C",[20],94.2%
same,"viability, T/C",[21],90.8%
same,"viability, T/C",[22],76.8%
same,"viability, T/C",[23],70.8%
same,"viability, T/C",[24],69.2%
same,"viability, T/C",[25],101%
same,"viability, T/C",[26],95.9%
same,"viability, T/C",[27],89.7%
same,"viability, T/C",[28],81.6%
same,"viability, T/C",[29],90.6%
same,"viability, T/C",[30],81.3%
same,"viability, T/C",[31],102%
same,"viability, T/C",[32],98.7%
same,"viability, T/C",[33],89.1%
same,"viability, T/C",[34],83.4%
same,"viability, T/C",[35],92.8%
same,"viability, T/C",[36],81%
CCCS(=O)(=O)Nc1ccc(F)c(C(=O)c2c[nH]c3ncc(-c4ccc(Cl)cc4)cc23)c1F + Cc1cccc(N(C)C(=O)C2C(O)CCN2c2nc(C)cc(C(F)(F)F)c2C#N)c1,IC50,second compound 0.0316 µM,> 10 µM
same,IC50,second compound 0.1 µM,> 10 µM
same,IC50,second compound 0.316 µM,> 10 µM
same,IC50,second compound 1 µM,> 10 µM
same,IC50,second compound 3.16 µM,> 10 µM
same,IC50,second compound 10 µM,> 10 µM
same,"viability, T/C",[1],101%
same,"viability, T/C",[2],110%
same,"viability, T/C",[3],96.8%
same,"viability, T/C",[4],119%
same,"viability, T/C",[5],109%
same,"viability, T/C",[6],77.7%
same,"viability, T/C",[7],105%
same,"viability, T/C",[8],102%
same,"viability, T/C",[9],106%
same,"viability, T/C",[10],114%
same,"viability, T/C",[11],101%
same,"viability, T/C",[12],78.7%
same,"viability, T/C",[13],106%
same,"viability, T/C",[14],101%
same,"viability, T/C",[15],97.3%
same,"viability, T/C",[16],97%
same,"viability, T/C",[17],105%
same,"viability, T/C",[18],62.8%
same,"viability, T/C",[19],113%
same,"viability, T/C",[20],118%
same,"viability, T/C",[21],103%
same,"viability, T/C",[22],102%
same,"viability, T/C",[23],120%
same,"viability, T/C",[24],61.5%
same,"viability, T/C",[25],101%
same,"viability, T/C",[26],106%
same,"viability, T/C",[27],105%
same,"viability, T/C",[28],103%
same,"viability, T/C",[29],102%
same,"viability, T/C",[30],73.2%
same,"viability, T/C",[31],110%
same,"viability, T/C",[32],102%
same,"viability, T/C",[33],98.3%
same,"viability, T/C",[34],106%
same,"viability, T/C",[35],124%
same,"viability, T/C",[36],66.2%
CCc1cc2c(N3CCc4c(cc(Cn5ccnc5)cc4-c4cn(C)nc4C(F)(F)F)C3=O)ccnc2c(OC)n1 + Cc1cccc(N(C)C(=O)C2C(O)CCN2c2nc(C)cc(C(F)(F)F)c2C#N)c1,IC50,second compound 0.0316 µM,> 10 µM
same,IC50,second compound 0.1 µM,> 10 µM
same,IC50,second compound 0.316 µM,> 10 µM
same,IC50,second compound 1 µM,> 10 µM
same,IC50,second compound 3.16 µM,> 10 µM
same,IC50,second compound 10 µM,> 10 µM
same,"viability, T/C",[1],107%
same,"viability, T/C",[2],93.3%
same,"viability, T/C",[3],93.9%
same,"viability, T/C",[4],78.7%
same,"viability, T/C",[5],82.3%
same,"viability, T/C",[6],72.7%
same,"viability, T/C",[7],99.6%
same,"viability, T/C",[8],90.7%
same,"viability, T/C",[9],85.4%
same,"viability, T/C",[10],93%
same,"viability, T/C",[11],70.7%
same,"viability, T/C",[12],63.7%
same,"viability, T/C",[13],108%
same,"viability, T/C",[14],92.8%
same,"viability, T/C",[15],89.1%
same,"viability, T/C",[16],88.5%
same,"viability, T/C",[17],85.2%
same,"viability, T/C",[18],72.9%
same,"viability, T/C",[19],108%
same,"viability, T/C",[20],95.9%
same,"viability, T/C",[21],94.6%
same,"viability, T/C",[22],90.1%
same,"viability, T/C",[23],90.2%
same,"viability, T/C",[24],85.3%
same,"viability, T/C",[25],105%
same,"viability, T/C",[26],98%
same,"viability, T/C",[27],96.8%
same,"viability, T/C",[28],91.2%
same,"viability, T/C",[29],91.3%
same,"viability, T/C",[30],82.3%
same,"viability, T/C",[31],104%
same,"viability, T/C",[32],98.9%
same,"viability, T/C",[33],99.2%
same,"viability, T/C",[34],92.4%
same,"viability, T/C",[35],88%
same,"viability, T/C",[36],88.7%
O=C(c1cc(Cc2n[nH]c(=O)c3ccccc23)ccc1F)N1CCN(C(=O)C2CC2)CC1 + COC1C(OC(N)=O)C(O)C(Oc2ccc3c(O)c(NC(=O)c4ccc(O)c(CC=C(C)C)c4)c(=O)oc3c2C)OC1(C)C,IC50,second compound 0.0316 µM,> 10 µM
same,IC50,second compound 0.1 µM,> 10 µM
same,IC50,second compound 0.316 µM,> 10 µM
same,IC50,second compound 1 µM,> 10 µM
same,IC50,second compound 3.16 µM,> 10 µM
same,IC50,second compound 10 µM,> 10 µM
same,"viability, T/C",[1],113%
same,"viability, T/C",[2],95.1%
same,"viability, T/C",[3],110%
same,"viability, T/C",[4],93%
same,"viability, T/C",[5],102%
same,"viability, T/C",[6],104%
same,"viability, T/C",[7],105%
same,"viability, T/C",[8],102%
same,"viability, T/C",[9],96.2%
same,"viability, T/C",[10],98.2%
same,"viability, T/C",[11],101%
same,"viability, T/C",[12],97.1%
same,"viability, T/C",[13],99%
same,"viability, T/C",[14],98.9%
same,"viability, T/C",[15],95.8%
same,"viability, T/C",[16],97%
same,"viability, T/C",[17],105%
same,"viability, T/C",[18],90.5%
same,"viability, T/C",[19],99.7%
same,"viability, T/C",[20],98.5%
same,"viability, T/C",[21],100%
same,"viability, T/C",[22],97.3%
same,"viability, T/C",[23],106%
same,"viability, T/C",[24],91.4%
same,"viability, T/C",[25],102%
same,"viability, T/C",[26],98.8%
same,"viability, T/C",[27],107%
same,"viability, T/C",[28],99.8%
same,"viability, T/C",[29],106%
same,"viability, T/C",[30],99.2%
same,"viability, T/C",[31],97.9%
same,"viability, T/C",[32],96.6%
same,"viability, T/C",[33],105%
same,"viability, T/C",[34],109%
same,"viability, T/C",[35],106%
same,"viability, T/C",[36],101%
